Several values for one entry are separate records, joined by “and”; a condition that tells them apart may be missing. Identical values can stand only once. Counter-ions that a name gives are not always drawn. Like-named read-outs stand apart in the source and are kept apart here.
Tests used:
DrHCN4 = target: T1, DrHCN4 (Danio rerio, UniProt A0A8N7UQR8); assay: Inhibition of HCN4 currents in Xenopus oocytes, two-electrode voltage clamp; assay type: cell-based, zebrafish (Danio rerio); conditions: holding −30 mV, hyperpolarized to −120 mV for 2 s, room temperature
T1 sequence (A0A8N7UQR8 1-1140): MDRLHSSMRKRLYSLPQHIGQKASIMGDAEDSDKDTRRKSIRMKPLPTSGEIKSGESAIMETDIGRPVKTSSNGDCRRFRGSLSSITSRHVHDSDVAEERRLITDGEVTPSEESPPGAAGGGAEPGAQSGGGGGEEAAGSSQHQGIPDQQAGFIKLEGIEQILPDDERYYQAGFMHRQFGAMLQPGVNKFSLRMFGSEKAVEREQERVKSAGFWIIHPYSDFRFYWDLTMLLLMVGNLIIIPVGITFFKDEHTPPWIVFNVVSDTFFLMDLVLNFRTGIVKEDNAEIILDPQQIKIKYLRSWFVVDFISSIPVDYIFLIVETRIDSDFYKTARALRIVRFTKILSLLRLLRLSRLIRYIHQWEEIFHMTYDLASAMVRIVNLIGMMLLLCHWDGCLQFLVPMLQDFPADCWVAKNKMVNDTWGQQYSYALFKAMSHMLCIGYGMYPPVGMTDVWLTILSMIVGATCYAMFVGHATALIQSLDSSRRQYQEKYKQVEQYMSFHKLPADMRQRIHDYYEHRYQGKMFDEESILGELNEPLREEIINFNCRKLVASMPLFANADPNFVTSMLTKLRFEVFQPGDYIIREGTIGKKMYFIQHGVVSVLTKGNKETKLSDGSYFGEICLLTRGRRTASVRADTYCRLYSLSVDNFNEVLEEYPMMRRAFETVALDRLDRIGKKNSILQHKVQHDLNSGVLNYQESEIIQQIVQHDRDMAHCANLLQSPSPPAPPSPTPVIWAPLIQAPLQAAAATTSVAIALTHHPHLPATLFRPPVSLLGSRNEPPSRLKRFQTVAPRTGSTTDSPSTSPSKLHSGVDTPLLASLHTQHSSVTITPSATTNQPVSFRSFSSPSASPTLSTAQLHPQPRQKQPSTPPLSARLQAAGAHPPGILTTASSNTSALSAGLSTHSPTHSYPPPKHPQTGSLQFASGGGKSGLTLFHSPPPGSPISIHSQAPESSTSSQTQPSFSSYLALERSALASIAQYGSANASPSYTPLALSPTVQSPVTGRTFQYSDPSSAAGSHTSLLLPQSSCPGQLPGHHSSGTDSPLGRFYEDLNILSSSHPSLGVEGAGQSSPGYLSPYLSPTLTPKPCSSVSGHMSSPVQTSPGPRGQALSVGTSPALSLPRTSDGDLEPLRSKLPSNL

HsHCN4 = target: T2, HsHCN4 (Homo sapiens, UniProt Q9Y3Q4); assay: as above; assay type: cell-based; conditions: holding −30 mV, hyperpolarized to −120 mV for 2 s, room temperature
T2 construct: host or cells: Xenopus laevis oocytes injected with cRNA (pGEMHE vector)
T2 sequence (Q9Y3Q4 1-1203): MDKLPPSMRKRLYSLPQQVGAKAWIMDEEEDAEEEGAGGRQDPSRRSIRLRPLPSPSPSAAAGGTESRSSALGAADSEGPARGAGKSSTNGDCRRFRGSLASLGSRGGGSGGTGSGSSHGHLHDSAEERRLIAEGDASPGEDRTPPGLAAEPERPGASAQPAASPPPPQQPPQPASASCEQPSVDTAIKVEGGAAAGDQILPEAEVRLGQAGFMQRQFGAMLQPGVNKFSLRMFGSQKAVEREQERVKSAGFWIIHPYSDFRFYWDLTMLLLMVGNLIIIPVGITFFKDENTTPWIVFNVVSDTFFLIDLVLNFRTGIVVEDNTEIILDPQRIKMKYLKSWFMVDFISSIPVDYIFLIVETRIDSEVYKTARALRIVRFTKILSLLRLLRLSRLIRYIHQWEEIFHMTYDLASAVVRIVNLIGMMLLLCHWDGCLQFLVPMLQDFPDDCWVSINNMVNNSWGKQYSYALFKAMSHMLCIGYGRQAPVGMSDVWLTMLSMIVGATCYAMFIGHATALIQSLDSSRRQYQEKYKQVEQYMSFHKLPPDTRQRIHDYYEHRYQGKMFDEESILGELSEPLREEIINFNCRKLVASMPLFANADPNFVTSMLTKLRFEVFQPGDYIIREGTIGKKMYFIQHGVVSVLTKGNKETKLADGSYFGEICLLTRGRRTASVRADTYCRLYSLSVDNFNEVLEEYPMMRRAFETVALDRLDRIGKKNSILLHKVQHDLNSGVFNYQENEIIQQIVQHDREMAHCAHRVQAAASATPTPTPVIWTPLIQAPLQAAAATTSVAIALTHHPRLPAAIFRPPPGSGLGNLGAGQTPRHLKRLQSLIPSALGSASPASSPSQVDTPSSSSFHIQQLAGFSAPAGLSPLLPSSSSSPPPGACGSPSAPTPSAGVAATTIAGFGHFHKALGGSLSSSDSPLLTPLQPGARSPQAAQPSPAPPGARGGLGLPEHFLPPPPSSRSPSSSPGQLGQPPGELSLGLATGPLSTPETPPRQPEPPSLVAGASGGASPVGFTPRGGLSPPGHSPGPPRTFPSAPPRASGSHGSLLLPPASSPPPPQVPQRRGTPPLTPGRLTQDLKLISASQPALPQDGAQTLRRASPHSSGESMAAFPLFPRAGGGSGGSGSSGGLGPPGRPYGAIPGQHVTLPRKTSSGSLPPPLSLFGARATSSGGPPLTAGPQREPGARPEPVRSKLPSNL

[1] = DrHCN4 in Xenopus oocytes, read-out: IC50

Row | Compound | IC50 (DrHCN4; [1]) [µM] | IC50 (HsHCN4) | IC50 (DrHCN4; DrHCN4 in Xenopus oocytes, listed as Cs^+, read-out: IC50) [µM] | IC50 (HsHCN4; listed as Cs^+) [µM] | IC50 (DrHCN4; IC50, DrHCN4 in Xenopus oocytes)
1 | CCN(c1ccccc1)c1cc(=NC)n(C)c(C)n1.Cl [ZD7288] | 699 ± 216 | 167 ± 56 µM | – | – | –
2 | [Cl-].[Cs+] [Cesium ion, Cesium chloride] | 44.3 ± 11.2 | 68.8 ± 14 µM | 44 ± 11 | 69 ± 14 | –
3 | COc1cc2c(cc1OC)CC(=O)N(CCCN(C)C[C@H]1Cc3cc(OC)c(OC)cc31)CC2 [Ivabradine, ivabradine hydrochloride] | – | 38 µM and 37.6 µM | – | – | 31 µM and 30.9 µM
